Laboratory results: article PMC4490784, “Compensatory induction of MYC expression by sustained CDK9 inhibition via a BRD4-dependent mechanism” (eLife, 2015)

How the values were obtained:
Assay in all cases: KINOMEscan binding assay
CAMK2B = biological target: T1, CAMK2B (Homo sapiens, UniProt Q13554); conditions: read-out: % Retention on Solid Support
T1 construct: purchased DiscoveRx KINOMEscan
Summary of the method: (§1)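 Binding, not catalytic activity, is measured: the compound competes with an active-site-directed ligand. Screening concentrations were 1 and 10 µM, applied across more than 400 kinases.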

PRKCE = biological target: T2, PRKCE (Homo sapiens, UniProt Q02156); conditions: read-out: % Retention on Solid Support
T2 construct: purchased DiscoveRx KINOMEscan
Summary of the method: as §1

HIPK2 = biological target: T3, HIPK2 (Homo sapiens, UniProt Q9H2X6); conditions: read-out: % Retention on Solid Support
T3 construct: purchased DiscoveRx KINOMEscan
Summary of the method: as §1

GRK4 = biological target: T4, GRK4 (Homo sapiens, UniProt P32298); conditions: read-out: % Retention on Solid Support
T4 construct: purchased DiscoveRx KINOMEscan
Summary of the method: as §1

PIK3CA(M1043I) = biological target: T5, PIK3CA(M1043I) (Homo sapiens, UniProt P42336, M1043I); conditions: read-out: % Retention on Solid Support
T5 construct: purchased DiscoveRx KINOMEscan
Summary of the method: as §1

MYLK4 = biological target: T6, MYLK4 (Homo sapiens, UniProt Q86YV6); conditions: read-out: % Retention on Solid Support
T6 construct: purchased DiscoveRx KINOMEscan
Summary of the method: as §1

ZAK = biological target: T7, ZAK (Homo sapiens, UniProt Q9NYL2); conditions: read-out: % Retention on Solid Support
T7 construct: purchased DiscoveRx KINOMEscan
Summary of the method: as §1

FYN = biological target: T8, FYN (Homo sapiens, UniProt P06241); conditions: read-out: % Retention on Solid Support
T8 construct: purchased DiscoveRx KINOMEscan
Summary of the method: as §1

EGFR(L858R) = biological target: T9, EGFR(L858R) (Homo sapiens, UniProt P00533, L858R)
T9 construct: purchased DiscoveRx KINOMEscan
Summary of the method: as §1

BIKE = biological target: T10, BIKE (Homo sapiens, UniProt Q9NSY1); conditions: read-out: % Retention on Solid Support
T10 construct: purchased DiscoveRx KINOMEscan
Summary of the method: as §1

PAK3 = biological target: T11, PAK3 (Homo sapiens, UniProt O75914); conditions: read-out: % Retention on Solid Support
T11 construct: purchased DiscoveRx KINOMEscan
Summary of the method: as §1

IRAK1 = biological target: T12, IRAK1 (Homo sapiens, UniProt P51617); conditions: read-out: % Retention on Solid Support
T12 construct: purchased DiscoveRx KINOMEscan
Summary of the method: as §1

FLT3(K663Q) = biological target: T13, FLT3(K663Q) (Homo sapiens, UniProt P36888, K663Q); conditions: read-out: % Retention on Solid Support
T13 construct: purchased DiscoveRx KINOMEscan
Summary of the method: as §1

PFTK1 = biological target: T14, PFTK1 (Homo sapiens, UniProt O94921)
T14 construct: purchased DiscoveRx KINOMEscan
Summary of the method: as §1

LYN = biological target: T15, LYN (Homo sapiens, UniProt P07948); conditions: read-out: % Retention on Solid Support
T15 construct: purchased DiscoveRx KINOMEscan
Summary of the method: as §1

STK33 = biological target: T16, STK33 (Homo sapiens, UniProt Q9BYT3); conditions: read-out: % Retention on Solid Support
T16 construct: purchased DiscoveRx KINOMEscan
Summary of the method: as §1

FGFR4 = biological target: T17, FGFR4 (Homo sapiens, UniProt P22455); conditions: read-out: % Retention on Solid Support
T17 construct: purchased DiscoveRx KINOMEscan
Summary of the method: as §1

NDR2 = biological target: T18, NDR2 (Homo sapiens, UniProt Q9Y2H1); conditions: read-out: % Retention on Solid Support
T18 construct: purchased DiscoveRx KINOMEscan
Summary of the method: as §1

KIT(V559D) = biological target: T19, KIT(V559D) (Homo sapiens, UniProt P10721, V559D); conditions: read-out: % Retention on Solid Support
T19 construct: purchased DiscoveRx KINOMEscan
Summary of the method: as §1

EPHA6 = biological target: T20, EPHA6 (Homo sapiens, UniProt Q9UF33); conditions: read-out: % Retention on Solid Support
T20 construct: purchased DiscoveRx KINOMEscan
Summary of the method: as §1

PLK3 = biological target: T21, PLK3 (Homo sapiens, UniProt Q9H4B4); conditions: read-out: % Retention on Solid Support
T21 construct: purchased DiscoveRx KINOMEscan
Summary of the method: as §1

CTK = biological target: T22, CTK (Homo sapiens, UniProt P42679); conditions: read-out: % Retention on Solid Support
T22 construct: purchased DiscoveRx KINOMEscan
Summary of the method: as §1

[1] = biological target: T23, ABL1(Y253F)-non phosphorylated (Homo sapiens, UniProt P00519, Y253F); conditions: read-out: % Retention on Solid Support
T23 construct: purchased DiscoveRx KINOMEscan
Summary of the method: as §1

GAK = biological target: T24, GAK (Homo sapiens, UniProt O14976); conditions: read-out: % Retention on Solid Support
T24 construct: purchased DiscoveRx KINOMEscan
Summary of the method: as §1

MYO3B = biological target: T25, MYO3B (Homo sapiens, UniProt Q8WXR4); conditions: read-out: % Retention on Solid Support
T25 construct: purchased DiscoveRx KINOMEscan
Summary of the method: as §1

NEK9 = biological target: T26, NEK9 (Homo sapiens, UniProt Q8TD19); conditions: read-out: % Retention on Solid Support
T26 construct: purchased DiscoveRx KINOMEscan
Summary of the method: as §1

EGFR(L747-T751del,Sins) = system: EGFR(L747-T751del,Sins)
Summary of the method: as §1

OSR1 = biological target: T27, OSR1 (Homo sapiens, UniProt O95747); conditions: read-out: % Retention on Solid Support
T27 construct: purchased DiscoveRx KINOMEscan
Summary of the method: as §1

[2] = biological target: T28, ABL1(T315I)-phosphorylated (Homo sapiens, UniProt P00519, T315I); conditions: 1 µM i-CDK9; read-out: % Retention on Solid Support
T28 construct: purchased DiscoveRx KINOMEscan
Summary of the method: as §1

TRPM6 = biological target: T29, TRPM6 (Homo sapiens, UniProt Q9BX84); conditions: 1 µM i-CDK9; read-out: % Retention on Solid Support
T29 construct: purchased DiscoveRx KINOMEscan
Summary of the method: as §1

T25 sequence (Q8WXR4 whole entry): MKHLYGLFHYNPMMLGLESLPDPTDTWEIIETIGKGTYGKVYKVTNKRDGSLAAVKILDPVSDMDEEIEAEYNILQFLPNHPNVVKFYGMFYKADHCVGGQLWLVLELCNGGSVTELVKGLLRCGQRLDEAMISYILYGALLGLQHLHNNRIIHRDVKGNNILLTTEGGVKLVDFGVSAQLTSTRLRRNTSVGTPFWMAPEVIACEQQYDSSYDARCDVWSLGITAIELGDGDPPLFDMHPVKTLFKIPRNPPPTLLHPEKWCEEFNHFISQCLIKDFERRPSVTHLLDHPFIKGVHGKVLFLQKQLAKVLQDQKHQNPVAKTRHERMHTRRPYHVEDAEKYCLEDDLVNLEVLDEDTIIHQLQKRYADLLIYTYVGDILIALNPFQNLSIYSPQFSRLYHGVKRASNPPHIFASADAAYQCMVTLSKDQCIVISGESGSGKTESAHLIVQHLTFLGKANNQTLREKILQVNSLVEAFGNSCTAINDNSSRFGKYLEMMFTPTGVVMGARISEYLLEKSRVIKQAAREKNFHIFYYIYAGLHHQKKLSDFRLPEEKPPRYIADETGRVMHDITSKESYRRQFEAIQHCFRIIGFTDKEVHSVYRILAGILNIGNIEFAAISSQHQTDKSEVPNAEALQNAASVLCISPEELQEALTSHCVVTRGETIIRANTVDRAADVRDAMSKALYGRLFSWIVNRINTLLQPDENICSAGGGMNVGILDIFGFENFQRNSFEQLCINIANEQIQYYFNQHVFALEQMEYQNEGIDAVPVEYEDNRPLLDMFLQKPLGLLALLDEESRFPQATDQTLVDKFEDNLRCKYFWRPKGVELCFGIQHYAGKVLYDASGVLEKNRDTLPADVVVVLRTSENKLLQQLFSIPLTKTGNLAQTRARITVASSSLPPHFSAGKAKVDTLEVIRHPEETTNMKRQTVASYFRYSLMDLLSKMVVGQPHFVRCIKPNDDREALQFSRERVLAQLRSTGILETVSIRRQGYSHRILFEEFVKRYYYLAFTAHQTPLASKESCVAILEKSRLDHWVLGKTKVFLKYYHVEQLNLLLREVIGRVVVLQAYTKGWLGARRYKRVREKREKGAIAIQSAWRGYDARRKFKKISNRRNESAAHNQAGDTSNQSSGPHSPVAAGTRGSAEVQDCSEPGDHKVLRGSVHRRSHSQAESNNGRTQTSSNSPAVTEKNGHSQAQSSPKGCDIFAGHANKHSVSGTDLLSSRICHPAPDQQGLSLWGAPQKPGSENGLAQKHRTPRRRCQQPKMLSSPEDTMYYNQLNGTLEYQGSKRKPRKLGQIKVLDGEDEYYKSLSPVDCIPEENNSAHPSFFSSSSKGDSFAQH
T27 sequence (O95747 whole entry): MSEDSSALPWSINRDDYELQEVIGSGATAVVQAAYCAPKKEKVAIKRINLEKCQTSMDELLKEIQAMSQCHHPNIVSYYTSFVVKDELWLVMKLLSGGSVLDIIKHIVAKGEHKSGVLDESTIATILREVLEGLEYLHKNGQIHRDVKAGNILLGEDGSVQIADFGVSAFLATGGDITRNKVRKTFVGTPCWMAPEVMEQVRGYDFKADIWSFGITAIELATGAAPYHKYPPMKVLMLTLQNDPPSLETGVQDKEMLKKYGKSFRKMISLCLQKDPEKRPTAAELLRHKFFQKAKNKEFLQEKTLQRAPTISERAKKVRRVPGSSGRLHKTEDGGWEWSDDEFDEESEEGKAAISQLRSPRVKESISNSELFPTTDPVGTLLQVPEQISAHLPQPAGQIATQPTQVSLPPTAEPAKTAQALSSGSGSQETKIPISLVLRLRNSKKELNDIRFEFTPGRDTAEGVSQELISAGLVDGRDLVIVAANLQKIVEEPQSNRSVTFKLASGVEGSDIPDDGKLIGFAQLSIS
T15 sequence (P07948 whole entry): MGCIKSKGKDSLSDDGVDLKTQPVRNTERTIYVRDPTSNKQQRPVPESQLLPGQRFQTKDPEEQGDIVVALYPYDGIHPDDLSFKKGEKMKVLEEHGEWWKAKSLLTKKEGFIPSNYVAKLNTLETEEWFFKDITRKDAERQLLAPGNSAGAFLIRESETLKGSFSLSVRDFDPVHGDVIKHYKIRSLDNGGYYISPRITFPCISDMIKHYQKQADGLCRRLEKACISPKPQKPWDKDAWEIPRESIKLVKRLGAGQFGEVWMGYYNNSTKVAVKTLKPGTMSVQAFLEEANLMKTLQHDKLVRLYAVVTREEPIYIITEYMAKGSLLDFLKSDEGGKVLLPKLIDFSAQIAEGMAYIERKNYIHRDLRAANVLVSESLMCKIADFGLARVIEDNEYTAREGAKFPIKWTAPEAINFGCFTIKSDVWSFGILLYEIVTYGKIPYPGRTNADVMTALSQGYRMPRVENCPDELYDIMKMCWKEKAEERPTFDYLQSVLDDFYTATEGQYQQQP
T5 sequence (P42336 whole entry M1043I): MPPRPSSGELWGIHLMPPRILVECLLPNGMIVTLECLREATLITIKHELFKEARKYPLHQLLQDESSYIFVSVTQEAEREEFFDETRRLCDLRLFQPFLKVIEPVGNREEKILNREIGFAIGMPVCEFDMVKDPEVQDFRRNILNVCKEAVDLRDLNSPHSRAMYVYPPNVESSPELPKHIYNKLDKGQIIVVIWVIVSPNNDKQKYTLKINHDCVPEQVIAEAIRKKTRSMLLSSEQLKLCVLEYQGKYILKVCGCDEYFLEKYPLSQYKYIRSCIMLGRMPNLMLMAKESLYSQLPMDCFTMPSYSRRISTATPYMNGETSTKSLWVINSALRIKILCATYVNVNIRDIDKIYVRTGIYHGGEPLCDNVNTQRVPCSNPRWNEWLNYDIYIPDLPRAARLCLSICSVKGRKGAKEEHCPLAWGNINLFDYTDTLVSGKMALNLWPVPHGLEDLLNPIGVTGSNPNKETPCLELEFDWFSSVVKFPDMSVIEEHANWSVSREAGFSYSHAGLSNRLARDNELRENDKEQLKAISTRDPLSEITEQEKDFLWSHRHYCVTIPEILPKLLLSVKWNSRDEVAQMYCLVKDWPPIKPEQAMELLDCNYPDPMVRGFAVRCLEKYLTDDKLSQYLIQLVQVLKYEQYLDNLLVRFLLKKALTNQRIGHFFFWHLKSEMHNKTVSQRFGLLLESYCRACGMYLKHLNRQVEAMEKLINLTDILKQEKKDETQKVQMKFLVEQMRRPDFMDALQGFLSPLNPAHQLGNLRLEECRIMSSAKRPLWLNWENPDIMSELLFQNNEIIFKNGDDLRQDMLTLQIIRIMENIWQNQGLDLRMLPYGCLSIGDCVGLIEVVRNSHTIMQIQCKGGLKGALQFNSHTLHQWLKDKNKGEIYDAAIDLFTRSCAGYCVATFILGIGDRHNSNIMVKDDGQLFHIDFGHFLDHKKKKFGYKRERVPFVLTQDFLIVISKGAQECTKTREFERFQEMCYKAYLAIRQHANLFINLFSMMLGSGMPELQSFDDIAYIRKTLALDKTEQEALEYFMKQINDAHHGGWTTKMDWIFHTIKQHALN
T12 sequence (P51617 whole entry): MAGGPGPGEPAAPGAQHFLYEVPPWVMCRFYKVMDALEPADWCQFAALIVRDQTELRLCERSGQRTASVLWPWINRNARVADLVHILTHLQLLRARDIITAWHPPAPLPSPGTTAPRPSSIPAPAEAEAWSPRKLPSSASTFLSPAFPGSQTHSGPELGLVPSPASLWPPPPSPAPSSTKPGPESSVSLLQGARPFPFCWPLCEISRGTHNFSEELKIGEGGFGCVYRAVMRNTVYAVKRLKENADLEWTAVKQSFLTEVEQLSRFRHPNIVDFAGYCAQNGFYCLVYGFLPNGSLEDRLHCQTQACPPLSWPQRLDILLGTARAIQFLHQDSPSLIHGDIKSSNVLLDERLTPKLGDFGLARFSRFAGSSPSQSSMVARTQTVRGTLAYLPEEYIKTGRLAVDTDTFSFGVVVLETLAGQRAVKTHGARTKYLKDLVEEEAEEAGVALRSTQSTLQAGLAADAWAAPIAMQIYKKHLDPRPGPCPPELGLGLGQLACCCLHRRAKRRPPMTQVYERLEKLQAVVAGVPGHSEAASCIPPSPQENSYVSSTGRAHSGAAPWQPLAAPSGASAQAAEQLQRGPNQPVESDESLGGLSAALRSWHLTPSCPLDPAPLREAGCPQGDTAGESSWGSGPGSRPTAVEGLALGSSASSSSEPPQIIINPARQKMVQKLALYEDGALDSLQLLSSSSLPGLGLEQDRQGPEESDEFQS
T7 sequence (Q9NYL2 whole entry): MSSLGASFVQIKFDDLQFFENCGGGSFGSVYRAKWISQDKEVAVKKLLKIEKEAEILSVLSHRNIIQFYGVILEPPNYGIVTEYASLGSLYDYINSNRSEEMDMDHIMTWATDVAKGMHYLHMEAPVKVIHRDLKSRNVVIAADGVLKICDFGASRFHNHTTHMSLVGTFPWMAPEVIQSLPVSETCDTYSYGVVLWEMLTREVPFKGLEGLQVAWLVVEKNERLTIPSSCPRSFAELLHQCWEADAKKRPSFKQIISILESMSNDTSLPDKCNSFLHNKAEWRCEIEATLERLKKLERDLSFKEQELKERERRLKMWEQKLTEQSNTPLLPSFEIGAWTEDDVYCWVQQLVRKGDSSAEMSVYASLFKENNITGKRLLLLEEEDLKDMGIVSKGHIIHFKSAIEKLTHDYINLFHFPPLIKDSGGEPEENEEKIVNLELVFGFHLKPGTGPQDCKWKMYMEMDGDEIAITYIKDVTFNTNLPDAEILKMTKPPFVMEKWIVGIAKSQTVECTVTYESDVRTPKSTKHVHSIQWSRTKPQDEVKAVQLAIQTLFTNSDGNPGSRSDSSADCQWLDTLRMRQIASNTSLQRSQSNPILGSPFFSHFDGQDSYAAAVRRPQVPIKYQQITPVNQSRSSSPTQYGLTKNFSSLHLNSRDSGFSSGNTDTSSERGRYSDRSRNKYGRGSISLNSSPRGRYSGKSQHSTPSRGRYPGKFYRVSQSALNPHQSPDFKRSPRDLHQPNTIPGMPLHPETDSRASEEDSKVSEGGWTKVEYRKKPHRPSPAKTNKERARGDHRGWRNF

N[C@H]1CC[C@H](Nc2cc(-c3cccc(NCc4cccc(F)c4)n3)c(Cl)cn2)CC1 [i-CDK9, N2′-(trans-4-aminocyclohexyl)-5′-chloro-N6-(3-fluorobenzyl)-2,4′-bipyridine-2′,6-diamine]
remaining binding at 1 µM (CAMK2B; 1 µM i-CDK9): 100%
remaining binding at 10 µM (CAMK2B; 10 µM i-CDK9): 81%
remaining binding at 1 µM (PRKCE; 1 µM i-CDK9): 100%
remaining binding at 10 µM (PRKCE; 10 µM i-CDK9): 100%
remaining binding at 1 µM (HIPK2; 1 µM i-CDK9): 100%
remaining binding at 10 µM (HIPK2; 10 µM i-CDK9): 37%
remaining binding at 1 µM (GRK4; 1 µM i-CDK9): 100%
remaining binding at 10 µM (GRK4; 10 µM i-CDK9): 100%
remaining binding at 1 µM (PIK3CA(M1043I); 1 µM i-CDK9): 100%
remaining binding at 10 µM (PIK3CA(M1043I); 10 µM i-CDK9): 75%
remaining binding at 1 µM (MYLK4; 1 µM i-CDK9): 94%
remaining binding at 10 µM (MYLK4; 10 µM i-CDK9): 73%
remaining binding at 1 µM (ZAK; 1 µM i-CDK9): 100%
remaining binding at 10 µM (ZAK; 10 µM i-CDK9): 93%
remaining binding at 1 µM (FYN; 1 µM i-CDK9): 69%
remaining binding at 10 µM (FYN; 10 µM i-CDK9): 100%
% Retention on Solid Support (EGFR(L858R); 1 µM i-CDK9): 35%
% Retention on Solid Support (EGFR(L858R); 10 µM i-CDK9): 100%
remaining binding at 1 µM (BIKE; 1 µM i-CDK9): 100%
remaining binding at 10 µM (BIKE; 10 µM i-CDK9): 63%
remaining binding at 1 µM (PAK3; 1 µM i-CDK9): 100%
remaining binding at 10 µM (PAK3; 10 µM i-CDK9): 98%
remaining binding at 1 µM (IRAK1; 1 µM i-CDK9): 100%
remaining binding at 10 µM (IRAK1; 10 µM i-CDK9): 73%
remaining binding at 1 µM (FLT3(K663Q); 1 µM i-CDK9): 100%
remaining binding at 10 µM (FLT3(K663Q); 10 µM i-CDK9): 74%
% Retention on Solid Support (PFTK1; 1 µM i-CDK9): 76%
% Retention on Solid Support (PFTK1; 10 µM i-CDK9): 5.4%
remaining binding at 1 µM (LYN; 1 µM i-CDK9): 100%
remaining binding at 10 µM (LYN; 10 µM i-CDK9): 81%
remaining binding at 1 µM (STK33; 1 µM i-CDK9): 88%
remaining binding at 10 µM (STK33; 10 µM i-CDK9): 100%
remaining binding at 1 µM (FGFR4; 1 µM i-CDK9): 98%
remaining binding at 10 µM (FGFR4; 10 µM i-CDK9): 100%
remaining binding at 1 µM (NDR2; 1 µM i-CDK9): 95%
remaining binding at 10 µM (NDR2; 10 µM i-CDK9): 100%
remaining binding at 1 µM (KIT(V559D); 1 µM i-CDK9): 88%
remaining binding at 10 µM (KIT(V559D); 10 µM i-CDK9): 90%
remaining binding at 1 µM (EPHA6; 1 µM i-CDK9): 100%
remaining binding at 10 µM (EPHA6; 10 µM i-CDK9): 91%
remaining binding at 1 µM (PLK3; 1 µM i-CDK9): 96%
remaining binding at 10 µM (PLK3; 10 µM i-CDK9): 89%
remaining binding at 1 µM (CTK; 1 µM i-CDK9): 75%
remaining binding at 10 µM (CTK; 10 µM i-CDK9): 100%
remaining binding at 1 µM ([1]; 1 µM i-CDK9): 84%
remaining binding at 10 µM ([1]; 10 µM i-CDK9): 100%
remaining binding at 1 µM (GAK; 1 µM i-CDK9): 100%
remaining binding at 10 µM (GAK; 10 µM i-CDK9): 89%
remaining binding at 1 µM (MYO3B; 1 µM i-CDK9): 100%
remaining binding at 10 µM (MYO3B; 10 µM i-CDK9): 36%
remaining binding at 1 µM (NEK9; 1 µM i-CDK9): 100%
remaining binding at 10 µM (NEK9; 10 µM i-CDK9): 100%
% Retention on Solid Support (EGFR(L747-T751del,Sins); 1 µM i-CDK9): 82%
% Retention on Solid Support (EGFR(L747-T751del,Sins); 10 µM i-CDK9): 61%
remaining binding at 1 µM (OSR1; 1 µM i-CDK9): 97%
remaining binding at 10 µM (OSR1; 10 µM i-CDK9): 85%
remaining binding at 1 µM [2]: 100%
remaining binding at 1 µM (TRPM6): 92%
